Measurements reported in patent US10940150B2, “Thymine derivatives and quinazoline-dione derivatives for the inhibition of HSP27” (TECHNISCHE UNIVERSITAET DRESDEN, priority 2014, dated 2021).
Blank lines part the entries; values can stand above or below the compound they belong to.

What was measured:
[1] = molecular target: HSP27 (Homo sapiens, UniProt P04792); assay: Capillary electrophoresis of heat-denatured citrate synthase protein precipitates; assay type: biochemical; details: for Efficacy compared with BVDU: 10 μmol/L vs 750 μmol/L BVDU
Experimental: (§1) Since the heat-denatured protein aggregates of the citrate synthase from Example 1 are not water-soluble, these can be separated completely from the supernatant by means of centrifugation at room temperature at 16,000×g, 10 min. By using capillary electrophoresis, the compositions of the separated precipitates can be shown and quantified. The relative quantity of protein of precipitated citrate synthase serves as a measure of the efficacy of the test substances.
(§2) In each case, 481 nmol/L HSP27 and 1.44 μmol/L citrate synthase in 40 mmol/L HEPES buffer, pH 7.4, were employed. The relative quantity of protein of the precipitated citrate synthase in each case was normalized using a defined quantity of BSA as internal standard. The relative quantity of protein that precipitated when using 750 μmol/L BVDU was set at 1. The other test substances (2 representatives of phenothiazine derivatives of general formula (V), 2 representatives of purine derivatives of formula (I) or (II)) were each employed at a concentration of 10 μmol/L.
as §1, with “Example 2” for “Example 1”
as §2, with “nM” for “nmol/L”, “thymine” for “purine”, “were” for “were each”, “μmol/L in each case.” for “μmol/L.”
Otherwise, the experiments were performed as described above: […]

[2] = tested on: U937 cells; assay: Development of resistance to bortezomib in U937 cells; assay type: cell-based
Experimental: For this purpose, U937 cells (histiocytic lymphoma) were cultured in DMEM culture medium (+10% FCS) at 37° C., 5% CO2 in an H2O-saturated atmosphere. 100,000 cells/ml were seeded and incubated with the cytostatic agent bortezomib (0.1 ng/ml) and the respective test substance (dosage in the current experiment: 1 μM/L acepromazine). The reference substance, BVDU, was employed at a concentration of 30 μM/L. The cells were in each case passaged before the cell count reached 1,000,000 cells/ml. At each passage, 100,000 cells/ml were again seeded and the dose of the cytostatic agent bortezomib was increased stepwise (0.1 ng/mL or 0.05 ng/mL). The concentration of the test substances remained constant. As a result of the stepwise increase in the dosage of the cytostatic agent, resistance developed in the U937 cells. The development of resistance is prevented or inhibited in the case of a positively tested HSP27 inhibitor. The experiments from Example 6 were repeated in the same way, wherein U937 cells (histiocytic lymphoma) are cultured in DMEM culture medium (+10% FCS) at 37° C., 5% CO2 in an H2O-saturated atmosphere. 100,000 cells/ml were seeded and incubated with an initial concentration of 0.2 ng/ml of the cytostatic agent bortezomib and both without an inhibitor and with acepromazine as an HSP27 inhibitor at a concentration of 1 μM/L. The reference substance, BVDU, was employed at a concentration of 30 μM/L. The cells were passaged in each case before the cell count reached 1,000,000 cells/ml. At each passage, 100,000 cells/ml were again seeded and the dose of the cytostatic agent bortezomib was increased stepwise by 0.1 ng/mL. The concentration of the test substance and the reference substance remained constant. As a result of the stepwise increase in the dosage of the cytostatic agent, resistance developed in the U937 cells. The development of resistance is prevented or inhibited in the case of a positively tested HSP27 inhibitor. The cell line U-937 is a histiocytic lymphoma (DSMZ ACC 5). This cell line also responds to treatment with bortezomib, expresses HSP27 and develops resistance to bortezomib. Bortezomib is not the standard therapy for this lymphoma, but is being discussed as a possible therapeutic agent. U-937 cells were seeded with a cell count of 100,000 cells/ml in each case and regularly passaged. […] At the end of the experiment, 70,000 living cells per ml medium could be detected. For the treatment with 30 μmol/L BVDU, a final cell count of 250,000 cells/ml was detected whereas the final cell count in the culture without the addition of an HSP27 inhibitor amounted to 450,000 cells/ml. As a control, U-937 cells were treated with the respective test substances alone, FIG. 10b.

[3] = tested on: RPMI-8226 cells; assay: Development of resistance to bortezomib in RPMI-8226 cells; assay type: cell-based
Experimental: The cell line RPMI-8226 (DMSZ 402) is a “multiple myeloma” cell line and was chosen because bortezomib is employed as a standard therapy for multiple myeloma. RPMI-8226 cells respond to bortezomib, express HSP27 and develop resistance to Velcade. RPMI-8226 cells were seeded at a cell count of 100,000 cells/ml in each case and regularly passaged. […] In contrast, for RPMI 8226 cells that were treated with 30 μmol/L BVDU, a final cell count of 160,000 cells/ml was detected whereas the final cell count for the culture without the addition of an HSP27 inhibitor amounted to 350,000 cells/ml. As a control, RPMI 8226 cells were treated with the respective test substances alone, FIG. 4b.

HSP27, sequence (P04792 whole entry): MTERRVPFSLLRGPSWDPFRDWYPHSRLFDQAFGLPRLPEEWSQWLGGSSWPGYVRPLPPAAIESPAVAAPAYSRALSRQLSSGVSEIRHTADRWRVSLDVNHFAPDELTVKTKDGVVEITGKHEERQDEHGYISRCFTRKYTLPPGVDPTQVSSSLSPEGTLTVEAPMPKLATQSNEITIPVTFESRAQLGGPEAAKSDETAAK

Efficacy compared with BVDU ([1]; 43° C. for 120 minutes (Table 1)): 74.25 x | Efficacy compared with BVDU ([1]; 43° C. for 120 minutes (Table 2)): 74.25 x | Rel. quantity of protein prec. CS ([1]; 10 μmol/L, 43° C. for 120 minutes, relative to 750 μmol/L BVDU = 1 (Table 1)): 0.99 | Rel. quantity of protein prec. CS ([1]; 10 μmol/L, 43° C. for 120 minutes, relative to 750 μmol/L BVDU = 1 (Table 2)): 0.99
SMILES: CC(=O)c1ccc2c(c1)N(CCCN(C)C)c1ccccc1S2 [Acepromazine]
development of resistance to the cytostatic agent bortezomib ([2]; bortezomib 0.1-0.5 ng/ml + 0.75 μmol/L acepromazine (FIG. 10a)): significantly inhibited | living cells at the end of the experiment ([2]; bortezomib 0.1-0.5 ng/ml + 0.75 μmol/L acepromazine (FIG. 10a), without HSP27 inhibitor 450,000 cells/ml): 70,000 living cells per ml medium | development of resistance to bortezomib ([2]; bortezomib 0.1 to 0.5 ng/ml stepwise + 1 μM acepromazine (FIG. 2)): no development of resistance occurred | living cells at the end of the experiment ([2]; bortezomib 0.1 to 0.5 ng/ml stepwise + 1 μM acepromazine (FIG. 2), without HSP27 inhibitor 790,000 cells/ml): no living cells were detectable | development of resistance to bortezomib ([2]; bortezomib 0.2 to 0.4 ng/ml stepwise + 1 μM acepromazine (FIG. 3)): no development of resistance occurred | living cells at the end of the experiment ([2]; bortezomib 0.2 to 0.4 ng/ml stepwise + 1 μM acepromazine (FIG. 3), without HSP27 inhibitor 230,000 cells/ml): no living cells were detectable | development of resistance to the cytostatic agent bortezomib ([3]; bortezomib 0.2-0.4 ng/ml + 0.75 μmol/L acepromazine (FIG. 4a)): significantly inhibited | living cells at the end of the experiment ([3]; bortezomib 0.2-0.4 ng/ml + 0.75 μmol/L acepromazine (FIG. 4a), without HSP27 inhibitor 350,000 cells/ml): 30,000 living cells per ml medium

Rel. quantity of protein prec. CS ([1]; 750 μmol/L, 43° C. for 70 minutes, set at 1 (Table 3)): 1 | Rel. quantity of protein prec. CS ([1]; 750 μmol/L, 43° C. for 120 minutes, set at 1 (Table 1)): 1 | Rel. quantity of protein prec. CS ([1]; 750 μmol/L, 43° C. for 120 minutes, set at 1 (Table 2)): 1
SMILES: O=c1[nH]c(=O)n([C@H]2C[C@H](O)[C@@H](CO)O2)cc1/C=C/Br [BVDU, (E)-5-(2-bromovinyl)-2′-deoxyuridine]
final cell count ([2]; bortezomib 0.1-0.5 ng/ml + 30 μmol/L BVDU (FIG. 10a), without HSP27 inhibitor 450,000 cells/ml): 250,000 cells/ml | final cell count ([2]; bortezomib 0.1-0.5 ng/ml + 30 μmol/L BVDU (FIG. 11a), without HSP27 inhibitor 450,000 cells/ml): 250,000 cells/ml | final cell count ([2]; bortezomib 0.1 to 0.5 ng/ml stepwise + 30 μM BVDU (FIG. 2), without HSP27 inhibitor 790,000 cells/ml): 430,000 cells/ml | final cell count ([2]; bortezomib 0.2 to 0.4 ng/ml stepwise + 30 μM BVDU (FIG. 3), without HSP27 inhibitor 230,000 cells/ml): 60,000 cells/ml | final cell count ([3]; bortezomib 0.075-0.275 ng/ml + 30 μmol/L BVDU (FIG. 9a), without HSP27 inhibitor 510,000 cells/ml): 340,000 cells/ml | final cell count ([3]; bortezomib 0.2-0.4 ng/ml + 30 μmol/L BVDU (FIG. 4a), without HSP27 inhibitor 350,000 cells/ml): 160,000 cells/ml | final cell count ([3]; bortezomib 0.2-0.4 ng/ml + 30 μmol/L BVDU (FIG. 5a), without HSP27 inhibitor 350,000 cells/ml): 160,000 cells/ml
